Here are results for three molecules from patent US20110118464A1, “HALOGENATED XANTHINE DERIVATIVES AND PRECURSORS THEREOF FOR ANTI-CANCER AND ANTI-METASTASIS ACTIVITY AND PREPARING METHOD THEREOF” (Kaohsiung Medical University, priority 2009, published 2011).

One data set has as its system Cyclin D protein. The data set is described as follows: Immunoblotting of Cyclin D in LNCaP. It counts as cell-based, human. As for the experimental part:
(§1) The amount of protein is determined by Bio-Rad protein reagent. Bovine serum albumin (BSA) of 0.1 mg/ml is the protein standard in the protein assay. Distilled water of 240 μl containing various known protein standards (the amounts of protein respectively are 0, 2, 4, 8, 12, 16, 20 and 30 μg) and 60 μl of Bio-Rad reagent are mixed gently in 96-well cell culture plate. The absorbance at the wavelength of 595 nm relative to the absorbance of blank test is determined using spectrophotometer (Hitachi U-200, Japan). A standard curve is evaluated from the known amounts of the protein standards and the absorbance thereof, and the amounts of the unknown proteins can be obtained according to this standard curve.
(§2) The quantified proteins are resolved by sodium dodecyl sulfate-polyacrylamide gel electrophoresis (SDS-PAGE), and the protein expression is evaluated by immunoblotting. The dilution rate of primary antibodies (i.e. anti-AR, anti-p21, anti-p27, anti-cyclin D, anti-cdk4 and anti-cdk6) is 1000 times, and that of anti-β-actin is 5000 times. The primary antibody detects the proteins for 1 hour, and the primary antibody is detected with the horseradish peroxidase (HRP)-conjugated secondary antibody for 1 hour. Finally, the detected protein are developed with enhanced chemical luminescence.

Data set [1] has as its system human prostate carcinoma PC-3. The data set is described as follows: MTT assay, survival rate of PC-3. To be noted: various concentrations, 24 and 48 hours, FIG. 7(C). On the technique in general: Formazan colour is commonly taken as a measure of viable cells.
Another data set has as its system p21 protein. The data set is described as follows: Immunoblotting of p21 in LNCaP. It counts as cell-based, human. As for the experimental part: as §1, §2
(In western blotting, separated proteins are transferred to a membrane and probed.)

Data set [2] relates to cAMP (cyclic adenosine monophophate). The data set is described as follows: cAMP concentration in LNCaP cells. Type of data set: cell-based, human.
Another data set concerns Bax/Bcl-2 ratio. The data set is described as follows: Bax/Bcl-2 ratio in LNCaP. It counts as cell-based, human. The conditions noted are these: various concentrations, 48 hours, FIG. 16(C).
Data set [3] deals with human prostate carcinoma LNCaP. The data set is described as follows: MTT assay, survival rate of LNCaP. The conditions noted are these: various concentrations, 24 and 48 hours, FIG. 7(A).
The subject of a further data set is Bax. The data set is described as follows: Bax expression in LNCaP. To be noted: various concentrations, 48 hours, FIG. 16(A). It counts as cell-based, human.
Data set [4] deals with human prostate carcinoma DU145. The data set is described as follows: MTT assay, survival rate of DU145. The conditions noted are these: various concentrations, 24 and 48 hours, FIG. 7(B).
A further data set concerns p27 protein. The data set is described as follows: Immunoblotting of p27 in LNCaP. It counts as cell-based, human. As for the experimental part:
as §1, §2

The subject of data set [5] is human tongue squamous cell carcinoma SCC-25. The data set is described as follows: MTT assay, survival rate of SCC-25. To be noted: 0.1-100 μM, 24 and 48 hours, FIG. 2.
A further data set has as its system LNCaP prostate tumor. The data set is described as follows: Tumor size in LNCaP-xenografted rude mice. Type of data set: in vivo. To be noted: for dose at which the significant effect is obtained: data not shown; for effect on LNCaP prostate tumor compared with the control: once per day for two months. As for the experimental part: In addition to observe the inhibition effect of the halogenated xanthine derivatives on the cancer cell lines in the cellular level, the animal experiments are further performed. LNCaP-xenografted rude mice are injected intraperitoneally with KMUP-1 ([…]) and dosed orally with KMUP-1 (200 and 400 mg/kg) respectively once per day, and a continuity for two months. […] The significant effect can be obtained (data not shown) when KMUP-1 is 100 mg/kg. […] The significant effect can be obtained (data not shown) when KMUP-1 is 200 mg/kg.

Data set [6] has as its system cGMP (3′,5′-cyclic guanosine monophosphate). The data set is described as follows: cGMP concentration in LNCaP cells. It counts as cell-based, human. To be noted: for cGMP concentration: 48 hours, FIG. 9(A).
The test system of a further data set is Bcl-2. The data set is described as follows: Bcl-2 expression in LNCaP. It counts as cell-based, human. The conditions noted are these: various concentrations, 48 hours, FIG. 16(B).
The next data set deals with p21. The conditions noted are these: Liu et al., 2007; cited from earlier work.
Data set [7] concerns dihydrotestosterone receptor. The data set is described as follows: Dihydrotestosterone receptor expression in LNCaP. Type of data set: cell-based, human. The conditions noted are these: 100 μM, 48 hours, FIG. 10(B). The protocol:
as §1, §2

In the next data set the test system is PZ-HPV-7 cells. To be noted: Liu et al., 2007; cited from earlier work.
For data set [8], the system named is human prostate epithelial PZ-HPV-7. The conditions noted are these: Liu et al., 2007; cited from earlier work.
A short description of data set [9]: Body weight of LNCaP-xenografted rude mice. Type of data set: in vivo.
For another data set, the system named is CDK4 protein. The data set is described as follows: Immunoblotting of CDK4 in LNCaP. Type of data set: cell-based, human. The protocol: as §1, §2
The test system of data set [10] is human prostate carcinoma LNCaP. The data set is described as follows: Analysis of cell cycle in LNCaP. It counts as cell-based. To be noted: increased concentrations, 24 and 48 hours, FIG. 8.
Procedure: The counted cells (10^5 cells/ml×3 ml) are seeded in the 6-well cell culture plate for 24 hours for attaching on the bottom of the cell culture plate, then DMEM/F12 medium without fetal bovine serum (FBS) is added therein for further incubation for 24 hours. Next, the medium is replaced with DMEM/F12 supplemented with 10% FBS, and the drugs at different concentrations are respectively added therein for reacting 24 and 48 hours. The cellular inoculate is harvested, and the wells are washed with phosphate buffered saline (PBS) for twice or triplet. The cells are eluted with 0.25% trypsin-0.02% EDTA, and are collected with the original inoculate in the centrifuge tube which is centrifuged at 4° C. at 1250×g (1200 rpm) for 5 minutes. Next, the supernatant is discarded and the pellet is resuspended in 1 ml PBS and the resuspended cells are transferred to an eppendorf tube which is centrifuged once again. The supernatant is discarded, and the cells are fixed with 300 μl PBS (4° C.) and 700 μl of 99.5% ethanol (50, 50, 100, 100, 200 and 200 μl ethanol respectively and sequentially added to make the cells resuspended in the well) for 30 minutes. […] The cells are transferred into a tube, and the cells are detected using CyFlow® cytometer. The ratios of G0/G1, S and G2/M phases are determined using multicycle DNA analysis software.
The subject of the next data set is AR (androgen receptor). The data set is described as follows: Immunoblotting of AR in LNCaP. It counts as cell-based, human. The conditions noted are these: 100 μM, 48 hours, FIG. 10(A). As for the experimental part:
as §1, §2

Consider `Cn1c(=O)c2c(ncn2CCN2CCN(c3ccccc3Cl)CC2)n(C)c1=O` [KMUP-1, 7-[2-[4-(2-chlorobenzene)piperazinyl]ethyl]-1,3-dimethylxanthine], for which the “Cyclin D expression at 100 μM relative to that at 1 μM” value was “one ninth” in the data set on Cyclin D protein (24 hours) and 20% in the data set with Cyclin D protein (48 hours). In the data set with Cyclin D protein (various concentrations, 24 and 48 hours, FIG. 13), the “Cyclin D expression” value was “would be decreased”. The “survival rate relative to the control” value in data set [1] is “decrease with the increased concentrations of KMUP-1”; in [3], “decrease with the increased concentrations of KMUP-1”; in [4], “decrease with the increased concentrations of KMUP-1”; in data set [5], “decreases with the increased concentrations of KMUP-1”. Besides, the “p21 expression at 100 μM relative to that at 1 μM” value in the data set on p21 protein is listed as “four times”. For the same molecule, the p21 expression result with p21 protein (various concentrations, 24 and 48 hours, FIG. 11) was “would be increased”. Moreover, the “cAMP concentration versus 100 μM KMUP-1 individually” value in [2] (100 μM KMUP-1 plus 10 μM SQ22536, 48 hours) was “can decrease the amount of cAMP in LNCaP cells”. Moreover, the cAMP concentration result in data set [2] (KMUP-1 individually, 48 hours, FIG. 9(B)) is recorded as “increases the amount of cAMP in LNCaP cells”. Further, the Bax/Bcl-2 ratio result in the data set with Bax/Bcl-2 ratio was “increases with the increased concentration of KMUP-1”. In addition, the Bax expression entry in the data set with Bax is “has no difference with the increased concentration of KMUP-1”. In addition, in the data set with p27 protein (24 hours), the “p27 expression at 100 μM relative to that at 1 μM” value was “twice”. In the data set with p27 protein (various concentrations, 24 and 48 hours, FIG. 12), the p27 expression entry is given as “would be increased”. The “LNCaP prostate tumor size” value is “does not enlarge anymore” in the data set on LNCaP prostate tumor (injected subcutaneously, 100 and 150 mg/kg, FIG. 17(A)); “does not enlarge anymore” with LNCaP prostate tumor (orally dosed, 400 mg/kg, FIG. 18(A)). Further, the “dose at which the significant effect is obtained” value in the data set on LNCaP prostate tumor (intraperitoneal injection) is given as 100 mg/kg; in the data set on LNCaP prostate tumor (oral dosage), 200 mg/kg. The “effect on LNCaP prostate tumor compared with the control” value in the data set with LNCaP prostate tumor (intraperitoneal injection) and in the data set with LNCaP prostate tumor (oral dosage) was “can significantly eliminate the LNCaP prostate tumor” in each case. Besides, the values for the cGMP concentration entry in data set [6] (KMUP-1 individually) and in data set [6] (together with 1 μM ODQ) were “increases the content of cGMP” and “the increased effect is not significant as KMUP-1 individually functioned on LNCaP cells”, respectively. Besides, the Bcl-2 expression result in the data set with Bcl-2 is “decreases with the increased concentration of KMUP-1”. The “p21 expression in PZ-HPV-7” value in the data set with p21 is recorded as “increase p21 expression”. In [7], the dihydrotestosterone receptor expression result is “relatively low”. Further, in the data set with PZ-HPV-7 cells, the “effect on cell cycle of PZ-HPV-7” value is “cease of cell cycle at G0/G1 phase”. In addition, the “growth of PZ-HPV-7” value in [8] is “can inhibit the growth”. Also, in [9] (dosed orally, eight weeks, FIG. 18(B)), the “body weight, experimental group versus control group” value was “do not have significant difference”. In addition, the body weight entry in data set [9] (subcutaneous injection, FIG. 17(B)) was “can decrease the body weight”. Further, in the data set with CDK4 protein (48 hours), the “CDK4 expression at 100 μM relative to that at 1 μM” value was 50%. In the data set on CDK4 protein (various concentrations, 24 and 48 hours, FIG. 14), the CDK4 expression entry is listed as “would be decreased”. For the same molecule, in data set [10], the “effect on cell cycle” value was “cease in G0/G1 phase and tend to sub-G1 phase”. Also, in the data set with AR (androgen receptor), the AR expression entry is “completely inhibited”.

As to `O=c1onc2cnc3ccccc3n12` [ODQ, 1H-[1,2,4]oxadiazolo[4,3-a]quinoxalin-1-one, reference compound], the “antagonism of the KMUP-1 effect on cGMP” value in data set [6] (1 μM ODQ with KMUP-1, 48 hours) is “antagonists to each other”.

As for `Nc1ncnc2c1ncn2C1CCCO1` (stereo not drawn) [SQ22536, reference compound], the “antagonism of the KMUP-1 effect on cAMP” value in [2] (10 μM SQ22536 with 100 μM KMUP-1, 48 hours) is listed as “can antagonize the improved effect of KMUP-1”.
